Where two headings read alike, the source gives them in different places.
How the values were obtained:
Assay in all cases: KINOMEscan ScanTK
Format in all cases: binding
EPHA1 = biological target: T1, EPHA1 (Homo sapiens, UniProt P21709)
T1 construct: purchased Eurofins DiscoverX KINOMEscan (scanTK)
T1 sequence (P21709 26-976): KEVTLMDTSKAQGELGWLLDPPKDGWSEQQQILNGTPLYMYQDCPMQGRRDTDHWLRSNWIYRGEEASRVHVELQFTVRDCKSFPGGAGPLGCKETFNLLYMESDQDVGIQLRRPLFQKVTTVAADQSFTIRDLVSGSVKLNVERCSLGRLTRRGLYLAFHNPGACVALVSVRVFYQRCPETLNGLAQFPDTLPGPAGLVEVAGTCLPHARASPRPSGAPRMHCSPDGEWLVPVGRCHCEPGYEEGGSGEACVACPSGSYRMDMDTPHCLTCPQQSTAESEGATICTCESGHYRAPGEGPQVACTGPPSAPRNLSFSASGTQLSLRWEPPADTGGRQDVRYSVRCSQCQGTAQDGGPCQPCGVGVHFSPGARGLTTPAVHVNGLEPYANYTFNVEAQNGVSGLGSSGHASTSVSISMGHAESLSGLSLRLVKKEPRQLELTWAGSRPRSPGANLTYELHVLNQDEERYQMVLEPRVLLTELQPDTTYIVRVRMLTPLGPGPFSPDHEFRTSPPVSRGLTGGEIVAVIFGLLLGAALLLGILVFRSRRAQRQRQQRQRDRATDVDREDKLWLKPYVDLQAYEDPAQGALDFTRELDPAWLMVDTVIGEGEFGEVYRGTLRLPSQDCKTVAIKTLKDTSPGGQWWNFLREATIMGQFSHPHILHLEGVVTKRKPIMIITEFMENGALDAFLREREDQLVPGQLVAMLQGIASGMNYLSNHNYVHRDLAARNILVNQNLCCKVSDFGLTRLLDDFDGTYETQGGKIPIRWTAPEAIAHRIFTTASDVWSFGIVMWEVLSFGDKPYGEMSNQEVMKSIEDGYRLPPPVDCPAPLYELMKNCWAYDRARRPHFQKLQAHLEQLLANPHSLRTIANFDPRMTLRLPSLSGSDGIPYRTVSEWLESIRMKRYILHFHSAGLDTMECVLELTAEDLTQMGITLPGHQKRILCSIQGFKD

[1] = biological target: T2, TYK2(JH2domain-pseudokinase) (Homo sapiens, UniProt P29597)
T2 construct: TYK2(JH2domain-pseudokinase); purchased Eurofins DiscoverX KINOMEscan (scanTK)
T2 sequence (P29597 575-869 limits assumed): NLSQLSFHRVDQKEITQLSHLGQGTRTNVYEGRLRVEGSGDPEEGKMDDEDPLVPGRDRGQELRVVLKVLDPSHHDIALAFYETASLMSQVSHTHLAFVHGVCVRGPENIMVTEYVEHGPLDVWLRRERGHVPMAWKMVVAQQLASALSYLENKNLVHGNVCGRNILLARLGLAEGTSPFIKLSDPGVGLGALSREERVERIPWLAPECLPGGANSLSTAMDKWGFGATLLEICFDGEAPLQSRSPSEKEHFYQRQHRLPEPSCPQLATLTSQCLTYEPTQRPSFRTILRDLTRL

EGFR(G719C) = biological target: T3, EGFR(G719C) (Homo sapiens, UniProt P00533, G719C)
T3 construct: purchased Eurofins DiscoverX KINOMEscan (scanTK)
T3 sequence (P00533 25-1210 G719C): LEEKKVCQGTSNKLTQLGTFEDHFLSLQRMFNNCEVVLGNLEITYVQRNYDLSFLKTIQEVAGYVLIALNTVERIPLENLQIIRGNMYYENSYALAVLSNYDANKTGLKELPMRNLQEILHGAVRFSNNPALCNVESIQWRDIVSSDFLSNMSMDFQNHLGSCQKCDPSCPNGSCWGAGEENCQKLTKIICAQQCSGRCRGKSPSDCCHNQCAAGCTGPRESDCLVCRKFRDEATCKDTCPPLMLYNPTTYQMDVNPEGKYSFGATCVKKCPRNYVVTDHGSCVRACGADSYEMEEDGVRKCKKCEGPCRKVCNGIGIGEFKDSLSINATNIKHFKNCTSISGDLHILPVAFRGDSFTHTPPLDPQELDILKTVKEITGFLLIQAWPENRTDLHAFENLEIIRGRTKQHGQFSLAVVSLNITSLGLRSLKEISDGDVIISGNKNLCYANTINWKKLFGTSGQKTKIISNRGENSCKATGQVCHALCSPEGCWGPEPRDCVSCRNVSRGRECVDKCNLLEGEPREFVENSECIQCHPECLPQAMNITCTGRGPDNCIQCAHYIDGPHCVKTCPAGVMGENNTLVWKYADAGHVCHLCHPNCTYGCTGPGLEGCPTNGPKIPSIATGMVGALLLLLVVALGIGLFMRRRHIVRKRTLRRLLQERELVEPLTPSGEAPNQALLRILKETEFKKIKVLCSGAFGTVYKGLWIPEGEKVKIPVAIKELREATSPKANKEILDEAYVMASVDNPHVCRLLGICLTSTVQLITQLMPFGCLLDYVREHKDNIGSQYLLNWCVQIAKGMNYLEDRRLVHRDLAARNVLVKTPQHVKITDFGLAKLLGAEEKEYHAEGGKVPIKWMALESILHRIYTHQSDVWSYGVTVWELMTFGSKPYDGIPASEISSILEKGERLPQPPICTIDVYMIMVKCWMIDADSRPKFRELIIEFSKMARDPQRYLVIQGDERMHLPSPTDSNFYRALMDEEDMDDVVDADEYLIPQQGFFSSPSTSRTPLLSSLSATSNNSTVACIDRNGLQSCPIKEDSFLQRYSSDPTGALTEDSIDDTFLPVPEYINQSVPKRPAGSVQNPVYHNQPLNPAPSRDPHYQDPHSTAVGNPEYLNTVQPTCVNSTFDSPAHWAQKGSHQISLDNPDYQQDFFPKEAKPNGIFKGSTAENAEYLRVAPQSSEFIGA

EGFR(L747-T751del,Sins) = tested on: EGFR(L747-T751del,Sins)
EGFR(G719S) = biological target: T4, EGFR(G719S) (Homo sapiens, UniProt P00533, G719S)
T4 construct: purchased Eurofins DiscoverX KINOMEscan (scanTK)
T4 sequence (P00533 25-1210 G719S): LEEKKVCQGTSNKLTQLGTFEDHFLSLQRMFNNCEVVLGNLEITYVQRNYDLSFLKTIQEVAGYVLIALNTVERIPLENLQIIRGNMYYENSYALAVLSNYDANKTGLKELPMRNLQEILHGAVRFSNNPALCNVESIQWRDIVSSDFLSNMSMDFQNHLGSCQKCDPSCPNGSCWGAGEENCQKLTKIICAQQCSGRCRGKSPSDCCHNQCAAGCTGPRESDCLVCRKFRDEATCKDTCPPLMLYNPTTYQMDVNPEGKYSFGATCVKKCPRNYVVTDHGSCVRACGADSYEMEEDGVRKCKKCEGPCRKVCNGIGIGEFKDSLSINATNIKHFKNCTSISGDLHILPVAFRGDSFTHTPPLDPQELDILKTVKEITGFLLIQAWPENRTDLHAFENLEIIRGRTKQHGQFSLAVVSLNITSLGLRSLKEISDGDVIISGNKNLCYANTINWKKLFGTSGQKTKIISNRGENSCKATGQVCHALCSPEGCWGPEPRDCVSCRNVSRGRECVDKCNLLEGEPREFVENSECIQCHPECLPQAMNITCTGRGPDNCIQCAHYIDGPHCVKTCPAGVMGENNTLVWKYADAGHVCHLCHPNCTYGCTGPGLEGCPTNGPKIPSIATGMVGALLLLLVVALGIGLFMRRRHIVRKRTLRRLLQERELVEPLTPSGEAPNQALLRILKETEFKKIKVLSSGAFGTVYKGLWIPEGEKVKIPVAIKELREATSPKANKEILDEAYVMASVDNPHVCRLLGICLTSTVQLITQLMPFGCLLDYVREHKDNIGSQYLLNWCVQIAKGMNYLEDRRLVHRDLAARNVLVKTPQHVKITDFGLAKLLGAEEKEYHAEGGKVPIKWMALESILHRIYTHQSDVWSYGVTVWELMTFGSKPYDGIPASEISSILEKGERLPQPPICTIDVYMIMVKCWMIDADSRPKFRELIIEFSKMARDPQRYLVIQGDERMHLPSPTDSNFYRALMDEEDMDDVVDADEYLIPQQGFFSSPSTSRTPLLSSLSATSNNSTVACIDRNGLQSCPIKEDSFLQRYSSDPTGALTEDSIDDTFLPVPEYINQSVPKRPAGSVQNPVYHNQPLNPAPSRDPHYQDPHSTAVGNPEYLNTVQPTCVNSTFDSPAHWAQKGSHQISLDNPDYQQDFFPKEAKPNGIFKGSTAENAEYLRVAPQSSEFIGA

[2] = biological target: T5, ABL1(Q252H)-nonphosphorylated (Homo sapiens, UniProt P00519, Q252H)
T5 construct: purchased Eurofins DiscoverX KINOMEscan (scanTK)

LTK = biological target: T6, LTK (Homo sapiens, UniProt P29376)
T6 construct: purchased Eurofins DiscoverX KINOMEscan (scanTK)

[3] = biological target: T7, ABL1(F317I)-phosphorylated (Homo sapiens, UniProt P00519, F317I)
T7 construct: purchased Eurofins DiscoverX KINOMEscan (scanTK)

PDGFRB = biological target: T8, PDGFRB (Homo sapiens, UniProt P09619)
T8 construct: purchased Eurofins DiscoverX KINOMEscan (scanTK)

EPHA2 = biological target: T9, EPHA2 (Homo sapiens, UniProt P29317)
T9 construct: purchased Eurofins DiscoverX KINOMEscan (scanTK)
T9 sequence (P29317 24-976): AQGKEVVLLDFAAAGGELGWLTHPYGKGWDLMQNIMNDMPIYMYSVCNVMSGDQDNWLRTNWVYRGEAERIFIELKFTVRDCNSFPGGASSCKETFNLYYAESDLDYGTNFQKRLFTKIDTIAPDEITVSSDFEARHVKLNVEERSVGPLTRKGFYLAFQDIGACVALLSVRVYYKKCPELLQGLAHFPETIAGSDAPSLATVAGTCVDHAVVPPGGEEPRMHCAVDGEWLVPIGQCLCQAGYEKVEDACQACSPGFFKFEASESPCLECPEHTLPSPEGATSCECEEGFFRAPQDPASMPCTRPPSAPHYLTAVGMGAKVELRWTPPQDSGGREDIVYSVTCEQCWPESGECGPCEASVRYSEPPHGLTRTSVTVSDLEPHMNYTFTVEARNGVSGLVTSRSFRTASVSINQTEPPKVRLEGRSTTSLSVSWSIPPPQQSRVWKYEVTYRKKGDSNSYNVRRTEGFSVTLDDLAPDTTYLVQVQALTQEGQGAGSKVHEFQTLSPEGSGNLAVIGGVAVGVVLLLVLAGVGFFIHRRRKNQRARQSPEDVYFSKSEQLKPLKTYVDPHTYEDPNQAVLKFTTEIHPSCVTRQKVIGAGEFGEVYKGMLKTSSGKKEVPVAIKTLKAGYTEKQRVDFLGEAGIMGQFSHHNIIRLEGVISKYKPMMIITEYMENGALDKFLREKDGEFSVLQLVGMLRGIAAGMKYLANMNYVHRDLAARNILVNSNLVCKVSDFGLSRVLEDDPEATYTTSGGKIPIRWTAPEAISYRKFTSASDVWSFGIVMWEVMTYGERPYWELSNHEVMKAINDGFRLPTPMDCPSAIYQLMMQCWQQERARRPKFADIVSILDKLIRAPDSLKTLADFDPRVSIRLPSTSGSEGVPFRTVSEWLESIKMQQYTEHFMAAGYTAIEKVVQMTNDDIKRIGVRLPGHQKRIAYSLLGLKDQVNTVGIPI

ERBB2 = biological target: T10, ERBB2 (Homo sapiens, UniProt P04626); details: ERBB2
T10 construct: purchased Eurofins DiscoverX KINOMEscan (scanTK)

INSRR = biological target: T11, INSRR (Homo sapiens, UniProt P14616)
T11 construct: purchased Eurofins DiscoverX KINOMEscan (scanTK)

EGFR(S752-I759del) = biological target: T12, EGFR(S752-I759del) (Homo sapiens, UniProt P00533, DEL752-759)
T12 construct: purchased Eurofins DiscoverX KINOMEscan (scanTK)
T12 sequence (P00533 with tags, fused parts or gaps DEL752-759 limits assumed): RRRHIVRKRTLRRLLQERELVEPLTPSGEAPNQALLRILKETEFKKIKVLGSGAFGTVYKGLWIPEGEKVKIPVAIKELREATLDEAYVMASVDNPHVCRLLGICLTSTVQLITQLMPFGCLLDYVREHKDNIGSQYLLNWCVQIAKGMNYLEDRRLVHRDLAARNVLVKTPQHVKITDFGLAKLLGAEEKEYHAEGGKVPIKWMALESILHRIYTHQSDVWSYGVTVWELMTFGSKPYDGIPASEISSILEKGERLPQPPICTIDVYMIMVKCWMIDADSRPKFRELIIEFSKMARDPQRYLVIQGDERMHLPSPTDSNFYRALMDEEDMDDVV

FRK = biological target: T13, FRK (Homo sapiens, UniProt P42685)
T13 construct: purchased Eurofins DiscoverX KINOMEscan (scanTK)

FES = biological target: T14, FES (Homo sapiens, UniProt P07332)
T14 construct: purchased Eurofins DiscoverX KINOMEscan (scanTK)
T14 sequence (P07332 whole entry): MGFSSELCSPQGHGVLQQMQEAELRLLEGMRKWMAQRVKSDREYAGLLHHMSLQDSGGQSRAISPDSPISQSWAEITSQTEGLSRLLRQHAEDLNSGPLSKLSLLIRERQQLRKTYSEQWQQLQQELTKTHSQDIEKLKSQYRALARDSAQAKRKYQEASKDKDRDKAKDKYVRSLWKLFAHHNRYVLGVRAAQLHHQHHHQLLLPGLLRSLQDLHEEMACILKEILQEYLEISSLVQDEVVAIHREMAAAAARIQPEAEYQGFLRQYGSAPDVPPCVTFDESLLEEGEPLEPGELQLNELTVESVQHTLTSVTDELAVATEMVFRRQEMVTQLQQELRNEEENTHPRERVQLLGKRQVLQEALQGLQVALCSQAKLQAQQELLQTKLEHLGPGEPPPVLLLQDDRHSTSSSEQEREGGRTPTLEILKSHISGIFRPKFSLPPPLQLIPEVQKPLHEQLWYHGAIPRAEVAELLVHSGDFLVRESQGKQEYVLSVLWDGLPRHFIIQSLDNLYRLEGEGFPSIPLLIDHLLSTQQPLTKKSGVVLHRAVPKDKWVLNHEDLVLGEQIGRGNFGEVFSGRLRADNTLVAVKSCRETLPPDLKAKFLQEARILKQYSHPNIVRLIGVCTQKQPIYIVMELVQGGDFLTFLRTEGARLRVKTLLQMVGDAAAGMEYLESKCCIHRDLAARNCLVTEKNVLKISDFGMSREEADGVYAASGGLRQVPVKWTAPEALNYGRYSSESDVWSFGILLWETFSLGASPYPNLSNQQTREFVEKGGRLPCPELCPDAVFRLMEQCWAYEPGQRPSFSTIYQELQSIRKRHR

difference in %Control versus compound Ib at 1 µM (EPHA1; @1000nM): -16%
remaining binding at 1 µM (EPHA1; @1000nM, read-out: %Control): 56%
remaining binding at 1 µM (EPHA1; read-out: %Control @1000nM): 56%
difference in %Control versus Ib at 1 µM ([1]; @1000nM, read-out: % difference (compound - Ib %Control)): 8%
remaining binding at 1 µM ([1]; @1000nM, read-out: %Control): 96%
remaining binding at 1 µM ([1]; read-out: %Control @1000nM): 96%
difference in %Control vs compound Ib at 1 µM (EGFR(G719C); @1000nM): 1.7%
remaining binding at 1 µM (EGFR(G719C); @1000nM, read-out: %Control): 2.8%
remaining binding at 1 µM (EGFR(G719C); read-out: %Control @1000nM): 2.8%
difference in %Control from compound Ib at 1 µM (EGFR(G719S); @1000nM): 84.4%
remaining binding at 1 µM (EGFR(G719S); @1000nM, read-out: %Control): 85%
remaining binding at 1 µM (EGFR(G719S); read-out: %Control @1000nM): 85%
difference in %Control versus reference compound Ib at 1 µM ([2]; @1000nM): 52%
remaining binding at 1 µM ([2]; @1000nM, read-out: %Control): 65%
remaining binding at 1 µM ([2]; read-out: %Control @1000nM): 65%
remaining binding at 1 µM (LTK; @1000nM, read-out: %Control): 94%
remaining binding at 1 µM (LTK; read-out: %Control @1000nM): 94%
difference in %Control from reference compound Ib at 1 µM ([3]; @1000nM): 6%
remaining binding at 1 µM ([3]; @1000nM, read-out: %Control): 79%
remaining binding at 1 µM ([3]; read-out: %Control @1000nM): 79%
remaining binding at 1 µM (PDGFRB; @1000nM, read-out: %Control): 68%
remaining binding at 1 µM (PDGFRB; read-out: %Control @1000nM): 68%
difference in %Control versus compound Ib at 1 µM (EPHA2; @1000nM): -1%
remaining binding at 1 µM (EPHA2; @1000nM, read-out: %Control): 99%
remaining binding at 1 µM (EPHA2; read-out: %Control @1000nM): 99%
difference in %Control versus compound Ib at 1 µM (ERBB2; @1000nM): 41%
remaining binding at 1 µM (ERBB2; @1000nM, read-out: %Control): 41%
remaining binding at 1 µM (ERBB2; read-out: %Control @1000nM): 41%
difference in %Control versus compound Ib at 1 µM (INSRR; @1000nM): 0%
remaining binding at 1 µM (INSRR; @1000nM, read-out: %Control): 96%
remaining binding at 1 µM (INSRR; read-out: %Control @1000nM): 96%
difference in %Control versus compound Ib at 1 µM (EGFR(S752-I759del); @1000nM): 80%
remaining binding at 1 µM (EGFR(S752-I759del); @1000nM, read-out: %Control): 82%
remaining binding at 1 µM (EGFR(S752-I759del); read-out: %Control @1000nM): 82%
difference in %Control versus compound Ib at 1 µM (FRK; @1000nM): 69.7%
remaining binding at 1 µM (FRK; @1000nM, read-out: %Control): 79%
remaining binding at 1 µM (FRK; read-out: %Control @1000nM): 79%
difference in %Control versus compound Ib at 1 µM (FES; @1000nM): 0%
remaining binding at 1 µM (FES; @1000nM, read-out: %Control): 100%
remaining binding at 1 µM (FES; read-out: %Control @1000nM): 100%
Compound: COC(=O)c1cnc(S(C)(=O)=O)nc1N1CCCC(n2nc(-c3ccc(Oc4ccccc4)cc3)c3c(N)ncnc32)C1 (stereo not shown) [Compound 8b, Methyl 4-(3-(4-Amino-3-(4-phenoxyphenyl)-1H-pyrazolo[3,4-d]pyrimidin-1-yl)piperidin-1-yl)-2-(methylsulfonyl)pyrimidine-5-carboxylate]
%Control @1000nM (EGFR(L747-T751del,Sins)): 65%
% difference (compound - Ib %Control) (EGFR(L747-T751del,Sins); @1000nM): 62.4%
%Control (EGFR(L747-T751del,Sins); @1000nM): 65%

Source: paper PMC11345841, “Exploring 2-Sulfonylpyrimidine Warheads as Acrylamide Surrogates for Targeted Covalent Inhibition: A BTK Story” (Journal of Medicinal Chemistry, 2024)
